The nature of data set [1]: Whole blood stability, mouse. The format is in vitro ADME. The source says:
(§1) The results of the assay on stability in blood and IC50 values for pancreatic cancer cell line KP4 are given below in Table 24.

In data set [2] the test system is KP4. Description: Cell viability assay (CellTiter Glo), pancreatic ductal adenocarcinoma KP4. The format is cell-based, human. Conditions: Homo sapiens, KP-4, 96 h, pancreatic cancer cell line KP4, 96 hours, CellTiter Glo; read-out: IC50 μM KP4. In a few lines:
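KP4 cells seeded at 1,000–10,000 per well, treated 96 h with 9-point 3-fold dilutions from 30 μM top (4.6 nM–30 μM, duplicates; ≤0.25% DMSO). Viability by CellTiter Glo luminescence; % inhibition relative to DMSO-only wells, giving IC50, relative IC50 or % top inhibition.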
In general terms: ATP-based viability assays read luminescence as a measure of living cells.

The nature of data set [3]: Whole blood stability, human. The format is in vitro ADME.
Description: as §1

Usually IC50 stands for the concentration at which inhibition is half-maximal.

Some results are limits rather than exact numbers.

On to `CN(C)C(=O)c1ccc([C@H]2c3[nH]c4ccccc4c3C[C@H](C(=O)N(C)C)N2C(=O)CCl)cc1` [Compound 38], for which the “Whole Blood Stability % Remaining at 37° C. Mouse” value in data set [1] (0 min) is 100.0%; in data set [1] (30 min) it was 72.9%; in data set [1] (60 min) it was 62.0%. Also, the IC50 in data set [2] was 0.5 to 1 µM. The “Whole Blood Stability % Remaining at 37° C. Human” value came to 100.0% in data set [3] (0 min), 46.2% in data set [3] (30 min) and 28.5% in data set [3] (60 min).
Consider `COC(=O)[C@H]1Cc2c([nH]c3ccccc23)[C@H](c2ccc(C(=O)NCCN3CCOCC3)cc2)N1C(=O)CCl` [Compound 27], for which the “Whole Blood Stability % Remaining at 37° C. Mouse” value amounted to 100.0% in data set [1] (0 min), 78.2% in data set [1] (30 min) and 73.2% in data set [1] (60 min). Also, in data set [2], the IC50 lay in the range of 0.01 to 0.1 µM. The “Whole Blood Stability % Remaining at 37° C. Human” value in data set [3] (0 min) was 100.0%; in data set [3] (30 min) it was 63.9%; in data set [3] (60 min), 48.3%.
In the case of `COC[C@H]1Cc2c([nH]c3ccccc23)[C@H](c2ccc(C(=O)OC(C)(C)C)cc2)N1C(=O)CCl` [Compound 63], the results for the “Whole Blood Stability % Remaining at 37° C. Mouse” value in data set [1] (0 min), in data set [1] (30 min) and in data set [1] (60 min) were 100.0%, 97.0% and 108.4%, respectively. In data set [2], the IC50 fell in the range of 0.01 to 0.1 µM. In addition, the entries for the “Whole Blood Stability % Remaining at 37° C. Human” value in data set [3] (0 min), in data set [3] (30 min) and in data set [3] (60 min) were 100.0%, 113.1% and 70.7%, respectively.
Consider `COC(=O)c1ccc([C@@H]2c3c(c4ccccc4n3C)C[C@H](C(=O)OC)N2C(=O)CCl)cc1` [Compound 73], for which the “Whole Blood Stability % Remaining at 37° C. Mouse” value is reported as 100.0% in data set [1] (0 min), 48.5% in data set [1] (30 min) and 1.1% in data set [1] (60 min). In addition, the IC50 in data set [2] is 0.5 to 1 µM. Also, the “Whole Blood Stability % Remaining at 37° C. Human” value in data set [3] (0 min) was 100.0%; in data set [3] (30 min), 55.1%; in data set [3] (60 min) it was 36.1%.
On to `COC(=O)[C@H]1Cc2c([nH]c3ccccc23)[C@H](c2ccc(C(=O)NCC3CC3)cc2)N1C(=O)CCl` [Compound 81], for which the results for the “Whole Blood Stability % Remaining at 37° C. Mouse” value in data set [1] (0 min), in data set [1] (30 min) and in data set [1] (60 min) were 100.0%, 64.2% and 39.8%, respectively. For the same compound, the IC50 in data set [2] is < 0.01 µM. Also, the entries for the “Whole Blood Stability % Remaining at 37° C. Human” value in data set [3] (0 min), in data set [3] (30 min) and in data set [3] (60 min) were 100.0%, 48.0% and 40.6%, respectively.
Turning to `CN(C)C(=O)[C@H]1Cc2c([nH]c3ccccc23)[C@H](c2ccc(S(=O)(=O)C3CC3)cc2)N1C(=O)CCl` [Compound 70], the figures for the “Whole Blood Stability % Remaining at 37° C. Mouse” value in data set [1] (0 min), in data set [1] (30 min) and in data set [1] (60 min) were 100.0%, 63.3% and 36.6%, respectively. Moreover, the IC50 in data set [2] lay within 0.1 to 0.5 µM. Moreover, the entries for the “Whole Blood Stability % Remaining at 37° C. Human” value in data set [3] (0 min), in data set [3] (30 min) and in data set [3] (60 min) were 100.0%, 46.0% and 23.8%, respectively.
For the compound `COC(=O)c1ccc([C@H]2c3[nH]c4ccc(F)cc4c3C[C@H](C(=O)OC)N2C(=O)CCl)cc1` [Compound 91], the “Whole Blood Stability % Remaining at 37° C. Mouse” value was found to be 100.0% in data set [1] (0 min), 0.0% in data set [1] (30 min) and 0.0% in data set [1] (60 min). For the same compound, the IC50 in data set [2] is < 0.01 µM. Further, the “Whole Blood Stability % Remaining at 37° C. Human” value stood at 100.0% in data set [3] (0 min), 65.8% in data set [3] (30 min) and 47.2% in data set [3] (60 min).
In the case of `CC[C@H]1Cc2c([nH]c3ccccc23)[C@H](c2ccc(C(=O)OC)cc2)N1C(=O)CCl` [Compound 98], the “Whole Blood Stability % Remaining at 37° C. Mouse” value is recorded as 100.0% in data set [1] (0 min), 0.0% in data set [1] (30 min) and 0.0% in data set [1] (60 min). Moreover, the IC50 in data set [2] is < 0.01 µM. For the same compound, the “Whole Blood Stability % Remaining at 37° C. Human” value amounted to 100.0% in data set [3] (0 min), 79.2% in data set [3] (30 min) and 54.8% in data set [3] (60 min).
Regarding `CN(C)C(=O)c1ccc([C@H]2c3[nH]c4ccccc4c3C[C@H](C(N)=O)N2C(=O)CCl)cc1` [Compound 58], the “Whole Blood Stability % Remaining at 37° C. Mouse” value in data set [1] (0 min) is 100.0%; in data set [1] (30 min), 89.9%; in data set [1] (60 min), 67.0%. In data set [2], the IC50 is > 1 µM. Further, the “Whole Blood Stability % Remaining at 37° C. Human” value in data set [3] (0 min) was found to be 100.0%; in data set [3] (30 min), 64.4%; in data set [3] (60 min), 40.5%.
For the compound `COC(=O)[C@H]1Cc2c([nH]c3ccccc23)[C@H](c2ccc(OC(=O)C(C)(C)C)cc2)N1C(=O)CCl` [Compound 13], the “Whole Blood Stability % Remaining at 37° C. Mouse” value in data set [1] (0 min) worked out at 100.0%; in data set [1] (30 min) it was 0.0%; in data set [1] (60 min), 0.0%. In addition, the half-inhibitory concentration (IC50) in data set [2] was 0.1 to 0.5 µM. For the same compound, the figures for the “Whole Blood Stability % Remaining at 37° C. Human” value in data set [3] (0 min), in data set [3] (30 min) and in data set [3] (60 min) were 100.0%, 34.9% and 29.2%, respectively.
Turning to `COC(=O)[C@H]1Cc2c([nH]c3ccccc23)[C@H](c2ccc(C(=O)NC(C)(C)C)cc2)N1C(=O)CCl` [Compound 9], the “Whole Blood Stability % Remaining at 37° C. Mouse” value in data set [1] (0 min) was found to be 100.0%; in data set [1] (30 min), 61.9%; in data set [1] (60 min) it was 40.6%. Further, the IC50 in data set [2] was < 0.01 µM. Moreover, the “Whole Blood Stability % Remaining at 37° C. Human” value was 100.0% in data set [3] (0 min), 53.8% in data set [3] (30 min) and 47.0% in data set [3] (60 min).
As for `C[C@H]1Cc2c([nH]c3ccc(F)cc23)[C@H](c2ccc(N3CCOCC3)cc2)N1C(=O)CCl` [Compound 114], the “Whole Blood Stability % Remaining at 37° C. Mouse” value in data set [1] (0 min) came out at 100.0%; in data set [1] (30 min) it was 59.3%; in data set [1] (60 min) it was 0.0%. In data set [2], the IC50 is < 0.01 µM. In addition, the “Whole Blood Stability % Remaining at 37° C. Human” value was 100.0% in data set [3] (0 min), 88.1% in data set [3] (30 min) and 50.8% in data set [3] (60 min).
Consider `CCC[C@H]1Cc2c([nH]c3ccccc23)[C@H](c2ccc(N3CCOCC3)cc2)N1C(=O)CCl` [Compound 118], for which the “Whole Blood Stability % Remaining at 37° C. Mouse” value in data set [1] (0 min) is listed as 100.0%; in data set [1] (30 min) it was 60.7%; in data set [1] (60 min) it was 0.0%. In data set [2], the IC50 was < 0.01 µM. Further, the “Whole Blood Stability % Remaining at 37° C. Human” value in data set [3] (0 min) is reported as 100.0%; in data set [3] (30 min) it was 100.2%; in data set [3] (60 min), 68.8%.
Consider `CN(C)C(=O)c1ccc([C@H]2c3sc4ccccc4c3C[C@H](C(=O)N(C)C)N2C(=O)CCl)cc1` [Compound 55], for which the “Whole Blood Stability % Remaining at 37° C. Mouse” value in data set [1] (0 min) was 100.0%; in data set [1] (30 min), 51.4%; in data set [1] (60 min), 24.6%. The IC50 in data set [2] was in the range of 0.1 to 0.5 µM. Besides, the “Whole Blood Stability % Remaining at 37° C. Human” value came to 100.0% in data set [3] (0 min), 50.6% in data set [3] (30 min) and 20.6% in data set [3] (60 min).
For the compound `CN(C)C(=O)[C@H]1Cc2c([nH]c3ccccc23)[C@H](c2ccc([Si](C)(C)C)cc2)N1C(=O)CCl` [Compound 67], the “Whole Blood Stability % Remaining at 37° C. Mouse” value worked out at 100.0% in data set [1] (0 min), 38.7% in data set [1] (30 min) and 13.3% in data set [1] (60 min). For the same compound, the IC50 in data set [2] was in the range of 0.01 to 0.1 µM. Moreover, the “Whole Blood Stability % Remaining at 37° C. Human” value in data set [3] (0 min) was 100.0%; in data set [3] (30 min), 56.8%; in data set [3] (60 min), 37.3%.
Turning to `CN(C)C(=O)[C@H]1Cc2c([nH]c3ccc(Br)cc23)[C@H](c2ccc(C(=O)OC(C)(C)C)cc2)N1C(=O)CCl` [Compound 61], the “Whole Blood Stability % Remaining at 37° C. Mouse” value in data set [1] (0 min) stood at 100.0%; in data set [1] (30 min), 20.5%; in data set [1] (60 min) it was 6.8%. Besides, the IC50 in data set [2] was < 0.01 µM. The results for the “Whole Blood Stability % Remaining at 37° C. Human” value in data set [3] (0 min), in data set [3] (30 min) and in data set [3] (60 min) were 100.0%, 49.2% and 34.0%, respectively.
`COC(=O)[C@H]1Cc2c([nH]c3ccccc23)[C@H](C23CC(C(=O)OC)(C2)C3)N1C(=O)CCl` [Compound 62]: the results for the “Whole Blood Stability % Remaining at 37° C. Mouse” value in data set [1] (0 min), in data set [1] (30 min) and in data set [1] (60 min) were 100.0%, 0.0% and 0.0%, respectively. Further, in data set [2], the IC50 lay within 0.01 to 0.1 µM. Besides, the entries for the “Whole Blood Stability % Remaining at 37° C. Human” value in data set [3] (0 min), in data set [3] (30 min) and in data set [3] (60 min) were 100.0%, 82.4% and 43.5%, respectively.
As for `COC(=O)c1ccc([C@@H]2c3sc4ccccc4c3C[C@H](C(=O)OC)N2C(=O)CCl)cc1` [Example 55d], the “Whole Blood Stability % Remaining at 37° C. Mouse” value in data set [1] (0 min) is 100.0%; in data set [1] (30 min) it was 0.0%; in data set [1] (60 min), 0.0%. For the same compound, the IC50 in data set [2] fell in the range of 0.1 to 0.5 µM. Also, the “Whole Blood Stability % Remaining at 37° C. Human” value in data set [3] (0 min) is on record as 100.0%; in data set [3] (30 min), 60.8%; in data set [3] (60 min), 41.2%.

Values taken from US11098040B2, “Compounds and methods of use” (Ferro Therapeutics, Inc., priority 2018, dated 2021).
